From patent US20130090516A1, “Local Anesthesia By Magnet-Directed Concentration of Nanoparticle Conjugated Anesthetic” (CARNEGIE MELLON UNIVERSITY, priority 2011, published 2013)

Legend:
[1] = Plasma concentration / pharmacokinetics of ropivacaine after intravenous administration; type: in vivo, rat
Protocol: For the assessment of plasma concentration of ropivacaine, the following groups were studied:
(§1) Each group included 3 animals. A volume of 0.3 ml of blood was drawn before injection, and at 15, 30, 60, 120, 180, 240 and 300 minutes after the injections. […] The animals in groups Bplasma and Cplasma had 14 mg of ropivacaine complexed with MNPs. In group Cplasma, the magnet assembly used in Example 2 was placed around the right ankle before injection and removed after 30 minutes.
After intravenous administration, the plasma concentration of ropivacaine declined in an exponential manner as expected, in all three groups. Group Aplasma cannot be directly compared to the other two groups because the close in group Aplasma was 14 times lower. Between groups Bplasma and Cplasma, there were no differences in any parameter. Data are presented as mean (SD). Lambda-Z is defined as terminal elimination rate constant. AUC is the area under the concentration curve. Vd is the volume of distribution. Cl is clearance rate. N/A means not applicable. Listed probability values are established through t-tests between groups B and C.

Sprague Dawley rats [2] = assay: Acute toxicity after intravenous injection (cardiopulmonary arrest as evidence of toxicity); type: in vivo, rat; details: 1.2 mg intravenous
Protocol: Conjugated nanoparticles so prepared may be injected intravenously into a subject. […] The efficacy as a local anesthetic when concentrated with an external magnet was assessed in the following experiment.
Specifically, acute toxicity studies of unconjugated magnetic nanoparticles, assay of plasma concentration of ropivacaine, and measurement of tissue concentration of ropivacaine at the ankle were performed.
Acute toxicity studies of unconjugated magnetic nanoparticles were conducted in 10 animals. Cardiopulmonary arrest was taken as evidence of toxicity.
as §1

[3] = rat, in vivo
Protocol: (§2) The experiments were done after placing the animals under isoflurane anesthesia and spontaneous ventilation. A volume of 2 milliliters of the injectate was given at 5-15° C. intravenously via a tail vein cannula over four to five minutes. A jugular catheter was inserted where necessary for blood withdrawals.
(§3) A separate set of two animals for each condition were used to assess ropivacaine concentration in the ankle.
(§4) In all groups, 0.3 ml of blood was withdrawn at baseline, at 15 minutes, and at 30 minutes for plasma ropivacaine determination. At 30 minutes, skin and subcutaneous tissue all around the right ankle were isolated for ropivacaine analysis. Analysis was performed by HPLC-MS-MS.
Again, data are presented as mean (SD)

[4] = Ropivacaine concentration in ankle tissue and plasma at 30 minutes (HPLC-MS-MS); details: Group A, ropivacaine only, 0.5 h
Protocol: as §2, §3, §4
Again, data are presented as mean (SD)

Sprague Dawley rats [5] = assay: Hargreaves test of thermal nociception (paw withdrawal latency); type: in vivo, rat; details: subcutaneous 0.8 ml of 0.1% or 0.2%, six animals each
Text: Sprague Dawley rats (300-350 grams) were used to assess the efficacy of formulations of ropivacaine generated as described above. The Hargreaves test of thermal nociception evaluates the level of sensory anesthesia of the plantar surface of the paw and was used to assess pain sensation here. Animals were placed in individual Plexiglas testing chambers in a modified Hargreaves box. Hargreaves et al., 1988, which is hereby incorporated by reference. A very low power idle intensity beam was used to initially target the plantar surface of the hind paw. Once appropriately placed, the beam was switched to a higher power active intensity (approximately 50% of maximum intensity). This causes radiant heat stimulation of the plantar hind paw and allows for a measure of the latency of the rat's paw withdrawal threshold.
Before each experiment, baseline nociception testing was performed on the animals. In all experiments, the left paws were used as controls and the right paws were utilized in the treatment condition. Rats were anesthetized using the general anesthetic isoflurane, awaked after a designated time, and the paws were tested after their returned to baseline wakefulness (approximately 5-10 minutes). Each hind paw was tested at 5 minute intervals for 40 minutes and at 10-minute intervals for 120 minutes. […]

SMILES: CCCN1CCCC[C@H]1C(=O)Nc1c(C)cccc1C [Plain ropiv, ropivacaine]
- Cmax ([1]; Group A, 1 mg ropivacaine iv, mean): 863.3 ng/mL
- Cmax (dose normalized) ([1]; rat, in vivo, iv): 863.3 ng/mL/mg
- AUC (0-inf) ([1]; rat, in vivo, iv, 1 mg): 875 ng·h/mL
- Cl (clearance rate) ([1]; rat, in vivo, iv, 1 mg): 1462 mL/h
- Half life ([1]; rat, in vivo, iv, 1 mg): 97.8 min
- Tmax ([1]; rat, in vivo, iv, 1 mg): 15 min
- Vd (volume of distribution) ([1]; rat, in vivo, iv, 1 mg): 3180 mL
- lethality (Sprague Dawley rats [2]): lethal
- factor by which absolute tissue drug concentration was higher than groups B and C [3]: 7-10
- Ratio of tissue to plasma concentration [4]: 3.12
- traditional nerve block (ankle block) (Sprague Dawley rats [5]): achieved
